Measurements as given in patent US5324648A, “Substituted isocoumarins as serine protease inhibitors and anti-inflammatory agents” (Georgia Tech Research Corporation, priority 1992, dated 1994).
Like-named read-outs stand apart in the source and are kept apart here.

Tests used:
Assay type in all cases: biochemical
[1] = molecular target: T1, porcine pancreatic elastase (PPE) (Sus scrofa, UniProt P00772); assay: Inactivation of porcine pancreatic elastase (PPE); details: pH 7.5, 25° C, read-out: kobs/[I]
T1 construct: from tissue; host or cells: porcine pancreas (from the name)
T1 sequence (P00772 27-266): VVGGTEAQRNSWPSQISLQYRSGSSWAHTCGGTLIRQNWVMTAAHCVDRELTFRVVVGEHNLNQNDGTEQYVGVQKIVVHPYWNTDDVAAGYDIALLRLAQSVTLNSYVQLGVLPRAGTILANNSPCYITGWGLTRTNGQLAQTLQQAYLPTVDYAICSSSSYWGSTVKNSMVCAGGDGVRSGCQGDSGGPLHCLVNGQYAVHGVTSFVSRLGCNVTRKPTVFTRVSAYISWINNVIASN

human lung tryptase = assay: Inactivation rate of human lung tryptase; details: pH 7.5, 25° C
In short: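 Incubation method in 0.1M Hepes, 0.5M NaCl, pH 7.5, 8% Me2SO, 25° C; inhibitor added to enzyme, aliquots withdrawn over time for residual activity. Substrate ZArg-SBzl (0.07 mM) with 4,4'-dithiodipyridine (0.33 mM). kobs from ln(vt/vo) vs time plots.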

cathepsin G = molecular target: T2, cathepsin G (Homo sapiens, UniProt P08311); assay: Inactivation of cathepsin G; details: for kinact/KI: pH 7.5, 25° C, read-out: kobs/[I]
T2 construct: from tissue; host or cells: human leukocytes
T2 sequence (P08311 21-255): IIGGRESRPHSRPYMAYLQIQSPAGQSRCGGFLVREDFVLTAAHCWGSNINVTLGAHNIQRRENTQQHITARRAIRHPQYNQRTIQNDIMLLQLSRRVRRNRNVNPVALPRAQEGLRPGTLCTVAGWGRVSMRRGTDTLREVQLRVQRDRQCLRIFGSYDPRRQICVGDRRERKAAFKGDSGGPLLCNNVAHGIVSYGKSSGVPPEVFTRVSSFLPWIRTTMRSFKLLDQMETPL
Procedure: Inactivation rates of serine proteases by substituted isocoumarins were measured by the incubation method. An aliquot of inhibitor (25 or 50 μl) in Me2 SO was added to a buffered enzyme solution (0.01-2.3 μM) to initiate the inactivation. Aliquots (50 μl) were withdrawn at various intervals and the residual enzymatic activity was measured. Me2 SO concentration in the reaction mixture was 8-12% (v/v). 0.1 Hepes, 0.01M CaCl2, pH 7.5 buffer was utilized for trypsin and coagulation enzymes. 0.1M Hepes, 0.5M NaCl, pH 7.5 was utilized for other serine proteases. […] Peptide thioesters or peptide nitroanilides with appropriate sequence were used as substrates for various serine proteases. All peptide thioester hydrolysis rates were measured with assay mixtures containing 4,4'-dithiodipyridine (ε324 =19800M^-1 cm^-1 ; Grasetti & Murray, Arch. Biochem. Biophys. 119, pp 41-49 (1967)). Peptide 4-nitroanilide nitroanilide hydrolysis was measured at 410 nm (ε410 =8800M^-1 cm^-1 ; Erlanger et al., Arch. Biochem. Biophys. 95, pp 271-278 (1961)). First order inactivation rate constant (kobs) were obtained from plots of ln (vt /vo) vs time, and the correlation coefficients were greater than 0.98.
^a Inactivation rates were measured at 0.1M Hepes, 0.5 NaCl, pH 7.5,
8-12% Me2 SO and 25° C. by incubation method.
and assayed for remaining activity.
^a Inhibition rates were measured in 0.1M Hepes, 0.05M NaCl, pH 7.5
buffer, 8-9% Me2 SO and at 25° C.
Me2 SO, pH 7,5 and at 25° C.
^a Inhibition was measured in 0.1M Hepes, 0.5M NaCl, pH 7.5 buffer,
5-10% Me2 SO and at 25° C. Suc--Val--Pro--Phe--NA (0.48 mM)
was used as the substrate for chymotrypsin and cat G.

human plasmin = molecular target: T3, human plasmin (Homo sapiens, UniProt P00747); assay: Inactivation rate of human plasmin; details: read-out: kobs/[I]
T3 construct: human plasmin; from tissue; host or cells: human plasma
T3 sequence (P00747 581-810 limits assumed): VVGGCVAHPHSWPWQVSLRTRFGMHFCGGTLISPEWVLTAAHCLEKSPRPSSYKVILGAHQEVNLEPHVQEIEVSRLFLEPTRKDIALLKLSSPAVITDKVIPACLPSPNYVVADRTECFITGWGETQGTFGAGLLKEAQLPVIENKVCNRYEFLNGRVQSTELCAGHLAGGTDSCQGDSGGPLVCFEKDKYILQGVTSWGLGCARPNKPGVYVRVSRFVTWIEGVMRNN
T3 sequence (P00747 97-580 partner limits assumed): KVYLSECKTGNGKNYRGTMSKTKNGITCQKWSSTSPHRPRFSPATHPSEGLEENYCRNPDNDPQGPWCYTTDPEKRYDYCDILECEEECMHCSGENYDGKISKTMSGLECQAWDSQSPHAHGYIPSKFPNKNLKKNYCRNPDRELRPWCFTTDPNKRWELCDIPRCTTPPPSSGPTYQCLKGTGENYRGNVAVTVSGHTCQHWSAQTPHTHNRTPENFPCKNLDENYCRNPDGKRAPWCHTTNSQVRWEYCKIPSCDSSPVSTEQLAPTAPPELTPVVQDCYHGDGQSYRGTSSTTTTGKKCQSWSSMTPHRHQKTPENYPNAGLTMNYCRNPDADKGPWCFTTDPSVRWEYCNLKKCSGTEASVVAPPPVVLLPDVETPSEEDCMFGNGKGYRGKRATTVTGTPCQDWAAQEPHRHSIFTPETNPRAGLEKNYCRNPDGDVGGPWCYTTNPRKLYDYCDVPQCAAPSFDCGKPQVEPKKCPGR

[2] = molecular target: recombinant human tissue plasminogen activator (Homo sapiens, UniProt P00750); assay: Inactivation rate of recombinant human tissue plasminogen activator; details: pH 7.5, 25° C, read-out: kobs/[I]
recombinant human tissue plasminogen activator, sequence (P00750 36-562): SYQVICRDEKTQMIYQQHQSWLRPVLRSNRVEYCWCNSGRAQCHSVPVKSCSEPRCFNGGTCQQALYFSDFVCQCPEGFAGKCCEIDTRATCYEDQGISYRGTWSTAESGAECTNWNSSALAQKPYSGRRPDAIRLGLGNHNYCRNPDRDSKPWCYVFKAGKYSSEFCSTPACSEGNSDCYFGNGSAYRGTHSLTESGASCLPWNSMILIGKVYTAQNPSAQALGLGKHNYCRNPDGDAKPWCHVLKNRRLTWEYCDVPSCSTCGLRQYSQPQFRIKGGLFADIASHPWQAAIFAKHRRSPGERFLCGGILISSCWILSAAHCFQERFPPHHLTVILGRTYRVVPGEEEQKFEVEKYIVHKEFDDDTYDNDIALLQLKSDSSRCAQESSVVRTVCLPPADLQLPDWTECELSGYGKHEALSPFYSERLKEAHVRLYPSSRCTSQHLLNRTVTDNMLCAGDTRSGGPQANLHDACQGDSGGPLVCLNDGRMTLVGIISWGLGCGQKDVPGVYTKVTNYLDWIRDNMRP
In short: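 Incubation method: enzyme mixed with inhibitor in Me2SO (8–12% v/v) in 0.1M Hepes, 0.5M NaCl, pH 7.5; aliquots withdrawn over time for residual activity with ZArg-SBzl (0.07 mM) plus 4,4'-dithiodipyridine (0.33 mM). kobs taken from ln(vt/vo) versus time plots.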

complement protein D = complement protein D (Homo sapiens, UniProt P00746); assay: Inactivation rate of complement protein D; details: Table II; pH 7.5, 25° C; [I] 0.05 to 1.29 mM; read-out: kobs/[I]
complement protein D, sequence (P00746 26-253): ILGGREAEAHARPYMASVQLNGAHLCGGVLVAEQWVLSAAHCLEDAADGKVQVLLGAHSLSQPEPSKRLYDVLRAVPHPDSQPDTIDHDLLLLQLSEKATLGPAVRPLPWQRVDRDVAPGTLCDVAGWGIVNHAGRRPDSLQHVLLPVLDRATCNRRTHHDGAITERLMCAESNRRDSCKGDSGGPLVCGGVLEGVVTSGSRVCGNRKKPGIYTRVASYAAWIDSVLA
Procedure: (§1) Inactivation rates of serine proteases by substituted isocoumarins were measured by the incubation method. An aliquot of inhibitor (25 or 50 μl) in Me2 SO was added to a buffered enzyme solution (0.01-2.3 μM) to initiate the inactivation. Aliquots (50 μl) were withdrawn at various intervals and the residual enzymatic activity was measured. Me2 SO concentration in the reaction mixture was 8-12% (v/v). 0.1 Hepes, 0.01M CaCl2, pH 7.5 buffer was utilized for trypsin and coagulation enzymes. 0.1M Hepes, 0.5M NaCl, pH 7.5 was utilized for other serine proteases. The inhibitor concentrations are shown in all the tables. Peptide thioesters or peptide nitroanilides with appropriate sequence were used as substrates for various serine proteases. All peptide thioester hydrolysis rates were measured with assay mixtures containing 4,4'-dithiodipyridine (ε324 =19800M^-1 cm^-1; Grasetti & Murray, Arch. Biochem. Biophys. 119, pp 41-49 (1967)). Peptide 4-nitroanilide nitroanilide hydrolysis was measured at 410 nm (ε410 =8800M^-1 cm^-1; Erlanger et al., Arch. Biochem. Biophys. 95, pp 271-278 (1961)). First order inactivation rate constant (kobs) were obtained from plots of ln (vt /vo) vs time, and the correlation coefficients were greater than 0.98.
(§2) ^a Conditions were 0.1M Hepes, 0.5M NaCl, pH 7.5, 8-10% Me2 SO
(§3) and 25° C. Inactivation rates were measured by incubation method.
(§4) Enzyme concentrations were as follows: protein D, 1-9 μM; C2, 0.7-1
(§5) μM; B, 1.8 μM; Bb, 0.3-0.8 μM; Cl^- s, 0.07 μM; Cl^-

[3] = molecular target: sheep lung lymph tryptase; assay: Inactivation rate of sheep lung lymph tryptase; details: Table III; pH 7.5, 25° C; [I] 10 to 460 μM
Cl^- r = molecular target: T4, Cl^- r (Homo sapiens, UniProt P00736); assay: Inactivation rate of complement protein C1r; details: Table II; pH 7.5, 25° C; [I] 4.6 to 470 μM; read-out: kobs/[I]
T4 construct: Cl^- r^f
T4 sequence (P00736 464-705 limits assumed): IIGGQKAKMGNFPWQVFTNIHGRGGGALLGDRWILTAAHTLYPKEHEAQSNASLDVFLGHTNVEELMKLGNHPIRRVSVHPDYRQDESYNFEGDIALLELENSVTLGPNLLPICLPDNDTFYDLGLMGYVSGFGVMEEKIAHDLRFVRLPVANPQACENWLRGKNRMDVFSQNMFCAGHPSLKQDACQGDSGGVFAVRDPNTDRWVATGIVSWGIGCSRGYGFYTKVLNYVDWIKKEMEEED
T4 sequence (P00736 18-463 partner limits assumed): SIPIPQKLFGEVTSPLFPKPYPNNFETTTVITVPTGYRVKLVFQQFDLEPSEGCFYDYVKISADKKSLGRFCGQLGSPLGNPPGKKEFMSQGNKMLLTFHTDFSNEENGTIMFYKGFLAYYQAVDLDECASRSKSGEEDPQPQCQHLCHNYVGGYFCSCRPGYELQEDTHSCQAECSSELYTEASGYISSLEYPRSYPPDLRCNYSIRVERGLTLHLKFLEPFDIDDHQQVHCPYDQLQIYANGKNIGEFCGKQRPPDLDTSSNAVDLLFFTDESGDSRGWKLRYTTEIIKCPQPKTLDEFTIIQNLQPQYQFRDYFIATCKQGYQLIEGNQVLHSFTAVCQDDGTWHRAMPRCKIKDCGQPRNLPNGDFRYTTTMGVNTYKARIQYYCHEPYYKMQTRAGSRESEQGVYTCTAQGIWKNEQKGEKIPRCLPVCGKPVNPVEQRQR
Procedure: as §1, §2, §3, §4, §5

[4] = Table VI, pH 7.5, 25° C, [I] 4 to 330 μM
[5] = pH 7.5, Table VI, [I] 7 to 44 μM
[6] = pH 7.5, Table IX, [I] 3.5-5.0 μM

kobs/[I] (human lung tryptase; Table IX, [I] 0.42-0.47 μM)	kinact/KI [2, 6] [M⁻¹ s⁻¹]	inhibition at 490 µM (cathepsin G; Table IV, not time dependent, at 0.49 mM) [%]	kinact/KI ([1]; Table X, [I] 33-46 μM) [M⁻¹ s⁻¹]	kinact/KI (cathepsin G; Table X, [I] 33-46 μM) [M⁻¹ s⁻¹]	kinact/KI (human plasmin; Table IX, 0.01M CaCl2, pH 7.5, 25° C, [I] 8.3-41 μM) [M⁻¹ s⁻¹]	SMILES	kinact/KI ([1]; Table IV, [I] 0.01 to 0.51 mM) [M⁻¹ s⁻¹]	kobs/[I] (human lung tryptase; Table III, [I] 0.4 to 50 μM)	kinact/KI (cathepsin G; Table IV, [I] 0.002 to 0.35 mM) [M⁻¹ s⁻¹]	kinact/KI (human plasmin; [4]) [M⁻¹ s⁻¹]	kinact/KI [2, 5] [M⁻¹ s⁻¹]	kinact/KI (complement protein D) [M⁻¹ s⁻¹]	kobs/[I] [3]	kinact/KI (Cl^- r) [M⁻¹ s⁻¹]
						COc1oc(=O)c2cc(NC(=N)N)ccc2c1Cl [7-guanidino-4-chloro-3-methoxyisocoumarin]	860	20,000 M^-1 s^-1	11000	3500	4420	252	620 M⁻¹ s⁻¹	75
						NCCCOc1oc(=O)c2ccccc2c1Cl [3-(3-aminopropoxy)-4-chloroisocoumarin]	70	2,000 M^-1 s^-1	260	770	94		18 M⁻¹ s⁻¹	
						N=C(N)SCCCOc1oc(=O)c2ccccc2c1Cl [3-(3-isothiureidopropoxy)-4-chloroisocoumarin]	70	64,000 M^-1 s^-1	83		4690	145	230 M⁻¹ s⁻¹	6610
19,000 M^-1 s^-1	13000					N=C(N)SCCCOc1oc(=O)c2cc(N)ccc2c1Cl [7-amino-4-chloro-3-(3-isothiureidopropoxy)isocoumarin]	1	28,000 M^-1 s^-1	36	4340	5690	55	710 M⁻¹ s⁻¹	1320
						N=C(N)Nc1ccc2c(Cl)c(OCCc3ccccc3)oc(=O)c2c1 [7-guanidino-4-chloro-3-(2-phenylethoxy)isocoumarin]	5.7	56,000 M^-1 s^-1	66000	4140	6780	92	3,900 M^-1 s^-1	342
						N=C(N)SCCOc1oc(=O)c2ccccc2c1Cl [3-(2-isothiureidoethoxy)-4-chloroisocoumarin]	270		110			61	290 M⁻¹ s⁻¹	
		81				COc1cc2ccc(NC(=N)N)cc2c(=O)o1 [7-guanidino-3-methoxyisocoumarin]	55			320			53 M⁻¹ s⁻¹	
						CCOc1oc(=O)c2cc(NC(=N)N)ccc2c1Cl [7-guanidino-3-ethoxy-4-chloroisocoumarin, 7-guanidino-4-chloro-3-ethoxyisocoumarin]	2300	61,000 M^-1 s^-1	84000	12300	7720	193	2,200 M^-1 s^-1	239
						O=c1oc(Cl)c(Cl)c2ccccc12 [3,4-dichloroisocoumarin, reference compound]		185 M⁻¹ s⁻¹			73	192	39 M⁻¹ s⁻¹	42
170,000 M^-1 s^-1	16000		840	100	32000	N=C(N)SCCOc1oc(=O)c2cc(NC(=O)Nc3ccccc3)ccc2c1Cl [PhNHCONH-CiTEtOIC, 7-(phenylcarbamoylamino)-4-chloro-3-(2-isothiureidoethoxy)isocoumarin]								
